System: haemoglobin
Assay: Ability of complexes to bind to haemoglobin (elution profile of 59Fe label on PD-10 column)
Assay type: binding
Details: 59Fe-labelled 3:1 neutral complex, 1 mM
Method: The ability of the complexes of 1-acetyl-3-hydroxypyrid-2-one and 1-ethyl-3-hydroxy-6-hydroxymethylpyrid-4-one to bind to haemoglobin is investigated by studying the elution profile of a ^59 Fe label when a mixture of haemoglobin and the ^59 Fe-labelled 3:1 (pyridone:iron) neutral complex (at 1 mM concentration) is applied to a PD-10 column (Sephadex […] gel permeation column - Pharmacia).

Molecule | haemoglobin binding ability
CC(=O)n1cccc([O-])c1=O.CC(=O)n1cccc([O-])c1=O.CC(=O)n1cccc([O-])c1=O.[Fe+3] [Fe^III complex of 1-acetyl-3-hydroxypyrid-2-one] | no detectable haemoglobin binding ability
CCn1cc([O-])c(=O)cc1CO.CCn1cc([O-])c(=O)cc1CO.CCn1cc([O-])c(=O)cc1CO.[Fe+3] [Fe^III complex of 1-ethyl-3-hydroxy-6-hydroxymethylpyrid-4-one] | no detectable haemoglobin binding ability

System: apotransferrin
Assay: Ability of iron complexes to donate iron to apotransferrin
Assay type: biochemical
Details: apotransferrin 10^-4 M, complex 10^-4 M, tris 50 mM pH 7.4, 37° C., 10 minutes
Method: Apotransferrin (10^-4 M) and the iron complex of 1-ethyl-3-hydroxy-6-hydroxymethylpyrid-4-one (10^-4 M; prepared as described in Example 1) were incubated together in tris hydrochloride (50 mM, buffered to pH 7.4) at 37° C. for 10 minutes when a 1 ml aliquot was removed from the medium and added to a PD10 column. 0.5 ml fractions were collected directly into scintillation vials for counting. […] A similar value was obtained with the complex of 3-hydroxy-1-(2'-hydroxyethyl)-2-methylpyrid-4-one but with the complex of 1-acetyl-3-hydroxypyrid-2-one over 80% of the iron was removed within 10 minutes.

Molecule | iron removed from the iron complex
CC(=O)n1cccc([O-])c1=O.CC(=O)n1cccc([O-])c1=O.CC(=O)n1cccc([O-])c1=O.[Fe+3] [Fe^III complex of 1-acetyl-3-hydroxypyrid-2-one] | over 80%
CCn1cc([O-])c(=O)cc1CO.CCn1cc([O-])c(=O)cc1CO.CCn1cc([O-])c(=O)cc1CO.[Fe+3] [Fe^III complex of 1-ethyl-3-hydroxy-6-hydroxymethylpyrid-4-one] | over 45%

System: inverted rat jejunal sac
Assay: In vitro permeation of rat jejunal sac by iron complexes (iron uptake into serosal space)
Details: relative to ferric chloride as 1; Krebs Ringer buffer, 37° C., up to 1 hour
Excerpt: Rats (male Sprague Dawley, 60 g) were killed and the jejunum removed, everted and cut into three segments (4 cm length). […] The contents of the sac were counted for ^59 Fe and measured spectrophotometrically.

Molecule | Relative Iron Uptake
[Cl][Fe]([Cl])[Cl] [FeCl3, ferric chloride] | 1
O=C([O-])[C@H](O)[C@@H](O)[C@H](O)[C@H](O)CO.O=C([O-])[C@H](O)[C@@H](O)[C@H](O)[C@H](O)CO.[Fe+2] [Fe^II gluconate] | 1.6

System: not given
Assay: not given
Details: n-octanol/tris buffer, 100 µM, pH 7.4

Partition coefficient KOUT, free compound | Molecule
0.03 | 3-hydroxy-5-hydroxymethyl-1-methylpyrid-4-one

System: human erythrocytes
Assay: not given
Details: pH 7.4

Amount of complex entering erythrocytes | Molecule
19 n.mole | Cc1c([O-])c(=O)ccn1CCC(=O)O.Cc1c([O-])c(=O)ccn1CCC(=O)O.Cc1c([O-])c(=O)ccn1CCC(=O)O.[Fe+3] [Fe^III complex of 1-(2'-carboxyethyl)-3-hydroxy-2-methylpyrid-4-one]
10 n.mole | CCOC(=O)Cn1cccc([O-])c1=O.CCOC(=O)Cn1cccc([O-])c1=O.CCOC(=O)Cn1cccc([O-])c1=O.[Fe+3] [Fe^III complex of 1-ethoxycarbonylmethyl-3-hydroxypyrid-2-one]
< 5 n.mole | Cc1c([O-])c(=O)ccn1CCO.Cc1c([O-])c(=O)ccn1CCO.Cc1c([O-])c(=O)ccn1CCO.[Fe+3] [Fe^III complex of 3-hydroxy-1-(2'-hydroxyethyl)-2-methylpyrid-4-one]
25 n.mole | COC(=O)CCn1ccc(=O)c([O-])c1C.COC(=O)CCn1ccc(=O)c([O-])c1C.COC(=O)CCn1ccc(=O)c([O-])c1C.[Fe+3] [Fe^III complex of 3-hydroxy-1-(2'-methoxycarbonylethyl)-2-methylpyrid-4-one]
30 n.mole | Cc1c([O-])c(=O)ccn1CCCO.Cc1c([O-])c(=O)ccn1CCCO.Cc1c([O-])c(=O)ccn1CCCO.[Fe+3] [Fe^III complex of 3-hydroxy-1-(3'-hydroxypropyl)-2-methylpyrid-4-one]
40 n.mole | Cc1c([O-])c(=O)ccn1CCCCO.Cc1c([O-])c(=O)ccn1CCCCO.Cc1c([O-])c(=O)ccn1CCCCO.[Fe+3] [Fe^III complex of 3-hydroxy-1-(4'-hydroxybutyl)-2-methylpyrid-4-one]
230 n.mole | COC(=O)Cn1cccc([O-])c1=O.COC(=O)Cn1cccc([O-])c1=O.COC(=O)Cn1cccc([O-])c1=O.[Fe+3] [Fe^III complex of 3-hydroxy-1-methoxycarbonylmethylpyrid-2-one]
< 5 n.mole | Cn1cc([O-])c(=O)cc1CO.Cn1cc([O-])c(=O)cc1CO.Cn1cc([O-])c(=O)cc1CO.[Fe+3] [Fe^III complex of 3-hydroxy-6-hydroxymethyl-1-methylpyrid-4-one]

The remaining lines, values behind:

Molecule | Amount of complex entering erythrocytes
Cc1c([O-])c(=O)ccn1CCN.Cc1c([O-])c(=O)ccn1CCN.Cc1c([O-])c(=O)ccn1CCN.[Fe+3] [Fe^III complex of 1-(2'-aminoethyl)-3-hydroxy-2-methylpyrid-4-one] | < 5 n.mole
CCCCNC(=O)Cn1cccc([O-])c1=O.CCCCNC(=O)Cn1cccc([O-])c1=O.CCCCNC(=O)Cn1cccc([O-])c1=O.[Fe+3] [Fe^III complex of 1-(N-butylcarbamoylmethyl)-3-hydroxypyrid-2-one] | 105 n.mole
CC(=O)n1cccc([O-])c1=O.CC(=O)n1cccc([O-])c1=O.CC(=O)n1cccc([O-])c1=O.[Fe+3] [Fe^III complex of 1-acetyl-3-hydroxypyrid-2-one] | 240 n.mole
O=C(O)Cn1cccc([O-])c1=O.O=C(O)Cn1cccc([O-])c1=O.O=C(O)Cn1cccc([O-])c1=O.[Fe+3] [Fe^III complex of 1-carboxymethyl-3-hydroxypyrid-2-one] | < 5 n.mole
CCn1cc([O-])c(=O)cc1CO.CCn1cc([O-])c(=O)cc1CO.CCn1cc([O-])c(=O)cc1CO.[Fe+3] [Fe^III complex of 1-ethyl-3-hydroxy-6-hydroxymethylpyrid-4-one] | 26 n.mole
Cc1c([O-])c(=O)ccn1CCCCCO.Cc1c([O-])c(=O)ccn1CCCCCO.Cc1c([O-])c(=O)ccn1CCCCCO.[Fe+3] [Fe^III complex of 3-hydroxy-1-(5'-hydroxypentyl)-2-methylpyrid-4-one] | 44 n.mole
CC(C)NC(=O)Cn1cccc([O-])c1=O.CC(C)NC(=O)Cn1cccc([O-])c1=O.CC(C)NC(=O)Cn1cccc([O-])c1=O.[Fe+3] [Fe^III complex of 3-hydroxy-1-[N-(2'-methylethyl)-carbamoylmethyl]-pyrid-2-one] | 52 n.mole
Fe^III complex of 1-carboxymethyl-3-hydroxy-2-methylpyrid-4-one | < 5 n.mole

System: not listed separately
Assay: physchem
Details: n-octanol/tris buffer, pH 7.4
Method: (§1) The partition coefficient Kpart, being the ratio (concentration of compound in n-octanol)/(concentration of compound in aqueous phase) on partition between n-octanol and aqueous tris hydrochloride (20 mM, pH 7.4; tris represents 2-amino-2-hydroxymethylpropane 1,3-diol), is measured at 20° C. for the 3:1 iron(III) complexes of each of the compounds listed in Table 1 and also for the iron-free compound (at 10^-4 M) by spectrophotometry. The solutions of the complexes are either produced by dissolving the pre-formed complex in the aqueous tris hydrochloride or are prepared in situ in the buffer by the admixture of a 3:1 molar ratio of the pyridone and ferric chloride, the pH thereafter being readjusted to 7.4 if necessary (the same product will be obtained in the buffer solution irrespective of whether the pyridone used is in a salt form or not). Acid washed glassware is used throughout and, following mixing of 5 ml of the 10^-4 M aqueous solution with 5 ml of n-octanol for 1 minute, the aqueous n-octanol mixture is centrifuged at 1,000 g for 30 seconds. The two resulting phases are separated for a concentration determination by spectrophotometry on each. For the free hydroxypyridones, the range 220-340 nm is used for concentration determinations whilst for the iron complexes the range 340-640 nm is used.

logD at 100 µM | Molecule
-0.347 | Cc1c(O)c(=O)ccn1CCC(=O)O [1-(2'-carboxyethyl)-3-hydroxy-2-methylpyrid-4-one]
< -2.7 | Cc1c(O)c(=O)ccn1CC(=O)O [1-carboxymethyl-3-hydroxy-2-methylpyrid-4-one]
-0.301 | CCOC(=O)Cn1cccc(O)c1=O [1-ethoxycarbonylmethyl-3-hydroxypyrid-2-one]
-1.22 | CCn1cc(O)c(=O)cc1CO [1-ethyl-3-hydroxy-6-hydroxymethylpyrid-4-one]

The remaining lines, values behind:

Molecule | logD at 100 µM
Cc1c(O)c(=O)ccn1CCN [1-(2'-aminoethyl)-3-hydroxy-2-methylpyrid-4-one] | < -2.7
CC(=O)OCCCCCn1ccc(=O)c(O)c1C [1-(5'-acetoxypentyl)-3-hydroxy-2-methylpyrid-4-one] | -0.347
CC(=O)n1cccc(O)c1=O [1-acetyl-3-hydroxypyrid-2-one] | -0.26
Cc1c(O)c(=O)ccn1CCCCCO [3-hydroxy-1-(5'-hydroxypentyl)-2-methylpyrid-4-one] | -0.553
COC(=O)Cn1cccc(O)c1=O [3-hydroxy-1-methoxycarbonylmethylpyrid-2-one] | -0.699

System: not listed separately
Assay: Partition coefficient between n-octanol and aqueous tris hydrochloride (20 mM, pH 7.4) at 20° C.
Details: free compound, 10^-4 M; n-octanol/tris hydrochloride 20 mM pH 7.4, 20° C.
Method: as §1

Partition coefficient KOUT, free compound | Molecule
1.89 | CCCCNC(=O)Cn1cccc(O)c1=O [1-(N-butylcarbamoylmethyl)-3-hydroxypyrid-2-one]
0.12 | CCNC(=O)Cn1cccc(O)c1=O [1-(N-ethylcarbamoylmethyl)-3-hydroxypyrid-2-one]
0.06 | CNC(=O)Cn1cccc(O)c1=O [3-hydroxy-1-(N-methylcarbamoylmethyl)pyrid-2-one]
0.35 | CCCNC(=O)Cn1cccc(O)c1=O [3-hydroxy-1-(N-propylcarbamoylmethyl)-pyrid-2-one]
0.34 | CC(C)NC(=O)Cn1cccc(O)c1=O [3-hydroxy-1-[N-(2'-methylethyl)-carbamoylmethyl]-pyrid-2-one]

Same assay, conditions: n-octanol partition, in words

Kpart values (in words) | Molecule
low Kpart values | Cc1c([O-])c(=O)ccn1CCN.Cc1c([O-])c(=O)ccn1CCN.Cc1c([O-])c(=O)ccn1CCN.[Fe+3] [Fe^III complex of 1-(2'-aminoethyl)-3-hydroxy-2-methylpyrid-4-one]
low Kpart values | Fe^III complex of 1-carboxymethyl-3-hydroxy-2-methylpyrid-4-one

Same assay, conditions: n-octanol/tris buffer, pH 7.4

logD at 100 µM | Molecule
< -2.7 | Cc1c(O)c(=O)ccn1CCO [3-hydroxy-1-(2'-hydroxyethyl)-2-methylpyrid-4-one]
-0.854 | Cc1c(O)c(=O)ccn1CCCCO [3-hydroxy-1-(4'-hydroxybutyl)-2-methylpyrid-4-one]
